Experimental findings from patent US8557875B2, “Gene transfer agent composition containing polyamidoamine dendron” (Public University Corporation Osaka Prefecture University, priority 2009, dated 2013) are described below.

Structures are written as SMILES.

One series concerns HeLa-S3. Briefly: Gene transfer (GFP expression, luciferase activity) versus commercial agents (Example 5). It counts as cell-based. As to conditions: HeLa-S3 adherent cells; compared with Lipofectamine LTX and FuGENE HD. The protocol:
pEGFP-C1 expressing a green fluorescent protein was used as a gene transfer plasmid; and adherent cells COS-7 and Hela-S3, and non-adherent cells K562, which were established cell lines, were used as target cells. Lipoplexes were individually prepared using DL-U2. Then, gene transfer was performed.
(HeLa—S3 cells: 3×10^4 cells/well·DMEM+10% FBS (Pe/St) 500 μl)
(i) A 20 mM Tris-HCl (pH 7.4) buffer was dispensed into three tubes at 35.5 μl (for NP ratio=6) for each of two tubes, and 23 μl (for NP ratio=8) for the remaining tube.
(ii) 1.0 μg of plasmid DNA (pCAG-GFP) was added to each of the three tubes prepared in step (i) at 2 μl (1.0 μg), and the contents were stirred.
(iii) A DL-U2 liposome solution was added to the three tubes prepared in step (ii) at 37.5 μl (N/P ratio=6) for each of two tubes, and 50 μl (N/P ratio=8) for the remaining tube.
(iv) 25 μl of an Opti-MEM (registered trademark) I Reduced-Serum Medium was further added, and the whole was thoroughly mixed and allowed to stand at room temperature for 5 minutes.
100 μl of the DL-plasmid DNA complex solution (N/P ratio=6) was added and mixed with the HeLa—S3 cells. […]
(vii) 48 hours later, luciferase activity was measured according to the protocol of the luciferase assay system (Promega, E1501) (relative values based on the activity of LTX defined as 1 were graphed).

The next series has as its system NHDF-ad cells. Briefly: Toxicity evaluation, WST-8 kit (Example 6). It counts as cell-based, human. The following applies: WST-8, 48 hours. The protocol: (NHDF-ad cells: 3.5×10^3 cells/well·DMEM+10% FBS (Pe/St) 70 μl)
(i) A 20 mM Tris-HCl (pH 7.4) buffer was dispensed into two tubes at, individually, 54.25 μl (for DL-G1) and 35.5 μl (for DL-U2).
(ii) 1.0 μg of plasmid DNA (pEGFP-luc+) was added to each of the two tubes prepared in step (i) at 2 μl (1.0 μg), and the contents were stirred.
(iii) To the prepared plasmid DNA solutions was added 37.5 μl of a DL-U2 liposome solution (N/P ratio=6), and the whole was thoroughly mixed using a vortex and incubated at room temperature for 30 minutes.
(iv) 25 μl of an Opti-MEM(R) I Reduced-Serum Medium was further added, and the whole was thoroughly mixed and allowed to stand at room temperature for 5 minutes.
(v) 2.8 and 7.0 μl per well of the DL-plasmid DNA complex solutions was individually added to three wells, and the contents were mixed (the addition amount was one-seventh the addition amount in the luciferase activity measurement).
(vi) The cells were incubated at 37° C. in 5% CO2 for 4 hours, and the growth medium was replaced.
(vii) 48 hours later, toxicity evaluation was performed according to the protocol of a WST-8 kit (Kishida Chemical Co., Ltd.) (a well to which no lipoplex solution was added was defined as 100%). […]
For orientation: Tetrazolium dyes change colour on reduction, which living cells bring about.

The next series has as its system K562. Briefly: Cytotoxic evaluation on gene transfer (Example 5). It counts as cell-based. As to conditions: compared with Lipofectamine LTX and FuGENE HD.
The next series relates to HeLa cells. Briefly: Gene transfer evaluated by luciferase assay (Example 2). The format is cell-based, human. The following applies: lipoplex with 1 μg plasmid DNA, various N/P ratios; FIG. 7 and FIG. 8. The protocol: HeLa cells derived from human cervical cancer were seeded in a 24-well dish at 5.0×10^4 cells per well, and cultured overnight at 37° C. in 0.5 ml of a DMEM medium containing 10% FBS. Then, the cells were washed twice with PBS containing 0.36 mM CaCl2 and 0.42 mM MgCl2 (PBS (+)). Next, 0.5 ml of a DMEM medium containing 10% FBS was added, and the cells were supplemented with a lipoplex (100 μl) containing 1 μg of plasmid DNA per well and incubated at 37° C. for 4 hours. Afterward, the cells were washed three times with PBS (+) to remove the lipoplex not incorporated into the cells. Then, 1 ml of a DMEM medium containing 10% FBS was added, and the cells were cultured at 37° C. for 40 hours.
The cells treated with the lipoplex and cultured for 40 hours were washed twice with PBS (+), and further washed once with PBS (−). […] The luciferase activity and the amount of protein in the resulting cell lysate were determined by luciferase assay and a Coomassie (Bradford) Protein Assay Kit (PIERCE). […] The luminescent substrate solution (20 μl) was mixed with a luminescent substrate liquid (95 μl) including luciferin (13.5 μg) and a 5 mg/ml albumin solution (5 ml), and subjected to measurement for 20 seconds with a Lumat LB9507 luminometer (Berthold Japan Co., Ltd.) for an amount of luminescence.

`CCCCCCCC/C=C\CCCCCCCCN(CCCCCCCC/C=C\CCCCCCCC)CCC(=O)NCCN(CCC(=O)NCCN)CCC(=O)NCCN` (racemic) [DL-G1-U2]: the gene transfer activity result in the series on HeLa-S3 is reported as “excellent gene transfer activity”. Besides, in the series with NHDF-ad cells, the “cytotoxicity on GFP gene transfer” value is reported as “lower than those of most of the commercially available transfer agents”. Moreover, in the series on K562, the cytotoxicity result was “lower cytotoxicity”. For the same compound, the “gene transfer efficiency (luciferase activity) compared with G1” value with HeLa cells is recorded as “two times higher”.
